Patent US4769378A, “Indenopyrimidine aromatase inhibitors” (Eli Lilly and Company, priority 1986, dated 1988)
Read-outs that look alike come from different tables or passages of the source.

What was measured:
aromatase = target: T1, aromatase (Rattus norvegicus, UniProt P22443); experiment: Aromatase inhibition in the rat ovarian microsome assay; type: biochemical; settings: substrate (androstenedione) concentration 0.1 μM; rat ovarian microsomes; read-out: EC50 (concentration of compound required to achieve 50% inhibition of aromatase activity)
T1 construct: ovarian microsomes are obtained from rats treated with pregnant mares serum gonadotropin; from tissue; host or cells: rat ovary microsomes (rats treated with pregnant mares serum gonadotropin)
T1 sequence (P22443 1-508): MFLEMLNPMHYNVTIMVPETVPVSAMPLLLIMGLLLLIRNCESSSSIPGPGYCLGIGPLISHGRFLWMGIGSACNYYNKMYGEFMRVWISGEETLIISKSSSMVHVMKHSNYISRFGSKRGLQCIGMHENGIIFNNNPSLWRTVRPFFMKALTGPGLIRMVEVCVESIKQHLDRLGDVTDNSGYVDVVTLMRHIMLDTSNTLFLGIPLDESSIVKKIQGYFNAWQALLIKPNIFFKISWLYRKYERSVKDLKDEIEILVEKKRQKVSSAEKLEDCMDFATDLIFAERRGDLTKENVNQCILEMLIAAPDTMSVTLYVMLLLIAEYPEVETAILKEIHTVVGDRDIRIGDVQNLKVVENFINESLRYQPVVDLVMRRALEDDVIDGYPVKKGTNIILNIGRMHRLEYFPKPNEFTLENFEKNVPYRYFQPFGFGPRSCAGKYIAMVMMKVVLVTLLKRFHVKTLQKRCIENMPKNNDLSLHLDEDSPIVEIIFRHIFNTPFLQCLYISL
Experimental: In this test system, ovarian microsomes are obtained from rats treated with pregnant mares serum gonadotropin. Test compounds are added to reaction vials containing 0.1 μM 4-androstene-3,17-dione, 100,000 dpm 1,2[^3 H]-androstenedione, the microsomes and a NADPH generating system. The concentrations of the inhibitors tested ranged between 5 and 10000 nM. […] Potency is determined based on the concentration of inhibitor in nM required to produce a 50% inhibition of enzyme activity (EC50) when the concentration of substrate (androstenedione) is 0.1 μM.

[1] = tested on: Estrogen synthesis (aromatization); experiment: Estrogen Synthesis Inhibition in Rats; type: in vivo, immature female Wistar rats; settings: Rattus norvegicus, po, 168 h, gavage; for response vs control in vivo at 3 mg/kg: 3 mg/kg × 7 days; for response vs control in vivo at 30 mg/kg: 30 mg/kg × 7 days;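 for Uterine Wt. %: 100% equals the stimulated control's weight gain over the unstimulated control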
Experimental: By virtue of their ability to inhibit the enzyme aromatase, the compounds of this invention are able to inhibit the synthesis of estrogens in mammals, thereby making the compounds useful in the treatment of estrogen-dependent diseases, such as breast cancer.
Immature female Wistar rats (45-55 grams) were divided into control and test groups of 2-8 animals each. Test compounds were administered for seven days daily by gavage in corn oil. Control animals received corn oil without the test compound. Beginning on the fourth day of the test, all animals treated with the test compound and one half of the control animals were given a subcutaneous injection of 1.0 mg of testosterone propionate in corn oil. The remaining control animals received only an equivalent volume of corn oil. On the seventh day of the test, rats treated with testosterone propionate were injected subcutaneously with 100 μCi of [^3 H]-testosterone in 50 μl of saline-ethanol (3:1).
After two hours, the animals were killed by decapitation. Uteri were isolated, trimmed of extraneous connective tissue, and weighed. […] In the control animals treated with testosterone propionate, estrogens produced by aromatization stimulated the uterus resulting in an increase in weight.
Ovaries from rats treated with [^3 H]-testosterone were excised, cleaned of extraneous tissue, and homogenized in 2.5 ml of a 1.0 mM potassium phosphate buffer containing 3.0 mM MgCl2.6H2 O, 320 mM sucrose, and 0.25% Triton X-100 (polyethylene glycol p-isooctyl phenyl ether, Rohm and Haas) at pH 6.5. The ovarian steroids were extracted with 1.5 ml of 9:1 toluene/ethanol to which had been added 25 to 100 mcg each of unlabelled estradiol, estriol, and estrone, and approximately 1000 dpm of [^14 C]-estradiol. The samples were vortexed, centrifuged at 500×g for 10 minutes, and the organic phase was transferred to a conical vial. Two additional extractions were performed on the residue in the same way. The pooled organic extracts were evaporated for subsequent thin-layer chromatography.
Ovarian proteins were precipitated by the addition of 5.0 ml of ethanol to the remaining aqueous phase. After an overnight incubation at 4° C., the samples were centrifuged at 1500×g for 10 minutes. The supernatant was discarded and the pellet was dissolved in 0.3 N potassium hydroxide. Protein was determined according to the method of Bradford, Analytical Biochemistry, 72, 248 (1976).
The organic residue from each above extraction was redissolved in 9:1 dichloromethane/methanol. The solution of each sample was applied to separate silica gel thin layer chromatography plates which contained a fluorescent indicator. The plates were developed the first dimension with 160:38:1.5:0.5 dichloromethane/ethyl acetate/methanol/acetic acid to within 3 cm of the top of the plate. After air-drying, the plate was developed in the second dimension with 180:19:1 dichloromethane/methanol/ammonium hydroxide. The plate was air-dried and viewed under 254 nm UV light.
The visible spots were marked and the plates were sprayed with primulin (0.001% in 4:1 acetone/water) according to the method of Wright, J. Chromatography, 59, 220 (1971) which allowed for the identification of additional steroids under 365 nm UV light. The spots were scraped from the plate using a glass wool plugged Pasteur pipet attached to a vacuum line. The steroids were eluted directly into scintillation vials by the addition of 0.2 ml of dichloromethane followed by two washes each of 2.0 ml of methanol. The organic solvent was evaporated and 10.0 ml of scintillation fluid (Beckman Ready Solv-NA) was added to the vials. Samples were analyzed by liquid scintillation spectrometry and the corrections were made based on the recoveries of the [^14 C]-steroid.
In Table 2, values for uterine weight are expressed as the respective weights of drug treated (DT), unstimulated corn oil control (UC), and stimulated corn oil control (SC) according to the calculation %=100 (DT-UC)/(SC-UC). […]

[2] = 100 (DT-UC)/(SC-UC), read-out: Uterine Wt. %
[3] = ovaries, percent of testosterone-treated controls, read-out: % steroid concentration, estradiol
[4] = ovaries, percent of testosterone-treated controls, read-out: % steroid concentration, estrone

Clc1ccc(C2(Cl)c3ccc(Cl)cc3-c3ncncc32)cc1 (centres unmarked) [Example 27, 5,8-dichloro-5-(4-chlorophenyl)-5H-indeno[1,2-d]pyrimidine]
EC50 (aromatase): 72 nM

Fc1cccc(C2c3ccccc3-c3ncncc32)c1 (centres unmarked) [Example 9, 5-(3-fluorophenyl)-5H-indeno[1,2-d]pyrimidine]
EC50 (aromatase): < 50 nM

Fc1ccc(C2c3ccc(C(F)(F)F)cc3-c3ncncc32)cc1 (centres unmarked) [Example 4, 5-(4-fluorophenyl)-8-(trifluoromethyl)-5H-indeno[1,2-d]pyrimidine]
EC50 (aromatase): 27 nM | response vs control in vivo at 3 mg/kg [1, 2]: -14.3% | response vs control in vivo at 30 mg/kg [1, 2]: -35.5%

ClC1(c2ccccc2)c2ccccc2-c2ncncc21 (centres unmarked) [Example 26, 5-chloro-5-phenyl-5H-indeno[1,2-d]pyrimidine]
EC50 (aromatase): 118 nM

CC(=O)NC1(c2ccc(F)cc2)c2ccccc2-c2ncncc21 (centres unmarked) [Example 24, N-[5-(4-fluorophenyl)-5H-indeno[1,2-d]pyrimidin-5-yl]acetamide]
EC50 (aromatase): 69 nM | response vs control in vivo at 3 mg/kg [1, 2]: 32.3% | response vs control in vivo at 3 mg/kg [1, 3]: 43.2% | response vs control in vivo at 3 mg/kg [1, 4]: 71.9% | response vs control in vivo at 30 mg/kg [1, 2]: 23.2% | response vs control in vivo at 30 mg/kg [1, 3]: 19.2% | response vs control in vivo at 30 mg/kg [1, 4]: 59.9%

OC1(c2ccccc2Cl)c2ccc(Cl)cc2-c2ncncc21 (centres unmarked) [Example 22, 8-chloro-5-(2-chlorophenyl)-5H-indeno[1,2-d]pyrimidin-5-ol]
EC50 (aromatase): 50 nM | response vs control in vivo at 3 mg/kg [1, 2]: 70% | response vs control in vivo at 3 mg/kg [1, 3]: 79.4% | response vs control in vivo at 3 mg/kg [1, 4]: 73.4% | response vs control in vivo at 30 mg/kg [1, 2]: 57.4% | response vs control in vivo at 30 mg/kg [1, 3]: 40.8% | response vs control in vivo at 30 mg/kg [1, 4]: 90.1%

FC1(c2ccc(Cl)cc2)c2ccc(Cl)cc2-c2ncncc21 (centres unmarked) [Example 28, 8-chloro-5-(4-chlorophenyl)-5-fluoro-5H-indeno[1,2-d]pyrimidine]
EC50 (aromatase): 35 nM

Clc1ccc(C2c3ccccc3-c3ncncc32)cc1Cl (centres unmarked) [Example 11, 5-(3,4-dichlorophenyl)-5H-indeno[1,2-d]pyrimidine]
EC50 (aromatase): < 50 nM

CC(=O)NC1(c2ccc(Cl)cc2Cl)c2ccccc2-c2ncncc21 (centres unmarked) [Example 25, N-[5-(2,4-dichlorophenyl)-5H-indeno[1,2-d]pyrimidin-5-yl]acetamide]
EC50 (aromatase): 500 nM

COc1ccc2c(c1)C(O)(c1ccc(Cl)cc1)c1cncnc1-2 (centres unmarked) [Example 20, 5-(4-chlorophenyl)-7-methoxy-5H-indeno[1,2-d]pyrimidin-5-ol]
EC50 (aromatase): 420 nM

Clc1ccc(Cl)c(C2c3ccccc3-c3ncncc32)c1 (centres unmarked) [Example 10, 5-(2,5-dichlorophenyl)-5H-indeno[1,2-d]pyrimidine]
EC50 (aromatase): 84 nM

Clc1ccc(C2c3ccccc3-c3ncncc32)c(Cl)c1 (centres unmarked) [Example 8, 5-(2,4-dichlorophenyl)-5H-indeno[1,2-d]pyrimidine]
EC50 (aromatase): 63 nM

Clc1ccc2c(c1)-c1ncncc1C2c1ccccc1 (centres unmarked) [Example 3, 8-chloro-5-phenyl-5H-indeno[1,2-d]pyrimidine]
EC50 (aromatase): 21 nM

COc1ccc2c(c1)C(c1ccc(Cl)cc1)c1cncnc1-2 (centres unmarked) [Example 12, 5-(4-chlorophenyl)-7-methoxy-5H-indeno[1,2-d]pyrimidine]
EC50 (aromatase): 128 nM

COc1ccc2c(c1)C(c1ccc(F)cc1)c1cncnc1-2 (centres unmarked) [Example 13, 5-(4-fluorophenyl)-7-methoxy-5H-indeno[1,2-d]pyrimidine]
EC50 (aromatase): 61 nM

OC1(c2ccc(Cl)cc2)c2ccc(Cl)cc2-c2ncncc21 (centres unmarked) [Example 18, 8-chloro-5-(4-chlorophenyl)-5H-indeno[1,2-d]pyrimidin-5-ol]
EC50 (aromatase): 26 nM | response vs control in vivo at 3 mg/kg [1, 2]: 30.4% | response vs control in vivo at 3 mg/kg [1, 3]: 16.8% | response vs control in vivo at 3 mg/kg [1, 4]: 89% | response vs control in vivo at 30 mg/kg [1, 2]: -7.7% | response vs control in vivo at 30 mg/kg [1, 3]: 7.5% | response vs control in vivo at 30 mg/kg [1, 4]: 77%

Fc1ccc2c(c1)-c1ncncc1C2c1ccc(C(F)(F)F)cc1 (centres unmarked) [Example 5, 8-fluoro-5-[4-(trifluoromethyl)phenyl]-5H-indeno[1,2-d]pyrimidine]
EC50 (aromatase): 50 nM | response vs control in vivo at 3 mg/kg [1, 2]: 47.3% | response vs control in vivo at 30 mg/kg [1, 2]: 22.8%

OC1(c2ccc(F)cc2)c2ccccc2-c2ncncc21 (centres unmarked) [Example 21, 5-(4-fluorophenyl)-5H-indeno[1,2-d]pyrimidin-5-ol]
EC50 (aromatase): < 50 nM | response vs control in vivo at 3 mg/kg [1, 2]: 46.4% | response vs control in vivo at 3 mg/kg [1, 3]: 14.5% | response vs control in vivo at 3 mg/kg [1, 4]: 83.8% | response vs control in vivo at 30 mg/kg [1, 2]: 17.9% | response vs control in vivo at 30 mg/kg [1, 3]: 8.8% | response vs control in vivo at 30 mg/kg [1, 4]: 71.3%

Fc1ccc(C2c3ccccc3-c3ncncc32)cc1 (centres unmarked) [Example 15, 5-(4-fluorophenyl)-5H-indeno[1,2-d]pyrimidine]
EC50 (aromatase): < 50 nM

c1ccc(C2c3ccccc3-c3ncncc32)cc1 (centres unmarked) [Example 7, 5-phenyl-5H-indeno[1,2-d]pyrimidine]
EC50 (aromatase): 84 nM

Fc1ccccc1C1c2ccccc2-c2ncncc21 (centres unmarked) [Example 14, 5-(2-fluorophenyl)-5H-indeno[1,2-d]pyrimidine]
EC50 (aromatase): 86 nM

OC1(c2ccc(Cl)cc2Cl)c2ccccc2-c2ncncc21 (centres unmarked) [Example 19]
EC50 (aromatase): 255 nM | response vs control in vivo at 3 mg/kg [1, 2]: 69.6% | response vs control in vivo at 3 mg/kg [1, 3]: 78.3% | response vs control in vivo at 3 mg/kg [1, 4]: 116% | response vs control in vivo at 30 mg/kg [1, 2]: 42.8% | response vs control in vivo at 30 mg/kg [1, 3]: 60% | response vs control in vivo at 30 mg/kg [1, 4]: 75.4%

COc1ccc2c(c1)-c1ncncc1C2c1cccc(Cl)c1 (centres unmarked) [Example 16, 5-(3-chlorophenyl)-8-methoxy-5H-indeno[1,2-d]pyrimidine]
EC50 (aromatase): < 50 nM

Fc1ccc2c(c1)C(c1ccccc1F)c1cncnc1-2 (centres unmarked) [Example 17, 7-fluoro-5-(2-fluorophenyl)-5H-indeno[1,2-d]pyrimidine]
EC50 (aromatase): 750 nM

CC(=O)NC1(c2ccc(Cl)cc2)c2ccc(Cl)cc2-c2ncncc21 (centres unmarked) [Example 23, N-[8-chloro-5-(4-chlorophenyl)-5H-indeno[1,2-d]pyrimidin-5-yl]acetamide]
EC50 (aromatase): 265 nM
